Drawing on PubChem BioAssay (NCI), this text covers GI50 and TGI for 3 compounds.

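Method: 48-hour compound exposure of cells in 96-well plates, five concentrations, linear interpolation of endpoints. GI50: concentration for 50% inhibition of growth. The concentration for full growth arrest is given as TGI.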

Test systems include SK-MEL-2 melanoma; MALME-3M melanoma; A549 NSCLC; MDA-MB-231 breast; UO-31 renal; MOLT-4 leukemia; SF-539 CNS; CCRF-CEM leukemia; HOP-62 NSCLC; NCI/ADR-RES ovarian.
Common to all, as to assay: NCI anticancer screen, dose series, 48 h

For the compound `CCC(C)[C@H](NC(=O)Nc1cc(C(F)(F)F)cc(C(F)(F)F)c1)C(=O)N[C@@H](Cc1cn(C)cn1)C(=O)OC` (stereo not given in full), the GI50 in the assay on SK-MEL-2 melanoma was 1.4 µM; in the assay on MALME-3M melanoma, 1.41 µM; in the assay with A549 NSCLC, 1.33 µM; in the assay with MDA-MB-231 breast, 0.619 µM; in the assay with UO-31 renal, 1.52 µM; in the assay on MOLT-4 leukemia, 0.873 µM. Moreover, the GI50 was 1.32 µM in the assay with SF-539 CNS, 0.0146 µM in the assay with CCRF-CEM leukemia, 0.919 µM in the assay with HOP-62 NSCLC and 3.78 µM in the assay with NCI/ADR-RES ovarian. The TGI in the assay with SK-MEL-2 melanoma is 1.89 µM; with MALME-3M melanoma, 2.01 µM; in the assay with A549 NSCLC it was 1.85 µM; in the assay with MDA-MB-231 breast, 1.12 µM; with UO-31 renal it was 2.31 µM; in the assay on MOLT-4 leukemia, 2.24 µM. Also, the TGI with SF-539 CNS worked out at 1.83 µM; with CCRF-CEM leukemia it was 1.45 µM; in the assay with HOP-62 NSCLC, 1.82 µM; with NCI/ADR-RES ovarian, 5.57 µM.

With `CC1=C(c2ccccc2)C(O)(c2ccccc2)C(C)C1=O` (stereo not given), the GI50 in the assay on SK-MEL-2 melanoma is 29.7 µM; in the assay with MALME-3M melanoma it was 27.7 µM; in the assay with A549 NSCLC, 32.5 µM; in the assay with MDA-MB-231 breast, 14 µM; in the assay on UO-31 renal, 13.2 µM; with MOLT-4 leukemia, 21.6 µM. In addition, the GI50 was 17.1 µM in the assay on SF-539 CNS, 23.7 µM in the assay with CCRF-CEM leukemia, 11.6 µM in the assay on HOP-62 NSCLC and 2.95 µM in the assay on NCI/ADR-RES ovarian. Moreover, the TGI with SK-MEL-2 melanoma, with MALME-3M melanoma, in the assay with A549 NSCLC, with MDA-MB-231 breast, in the assay with UO-31 renal and with MOLT-4 leukemia was over 100 µM in each case. For the same compound, the TGI in the assay with SF-539 CNS was over 100 µM; in the assay on CCRF-CEM leukemia, over 100 µM; in the assay on HOP-62 NSCLC, over 100 µM; with NCI/ADR-RES ovarian, 9.94 µM.

Turning to `CCN(CC)CCCNc1cc(OC)cc2nc3cc(Cl)ccc3nc12`, the GI50 with SK-MEL-2 melanoma was 1.75 µM; in the assay with MALME-3M melanoma it was 1.68 µM; with A549 NSCLC, 1.18 µM; in the assay on MDA-MB-231 breast, 2.71 µM; in the assay with UO-31 renal, 1.19 µM; in the assay on MOLT-4 leukemia, 1.28 µM. Also, the GI50 in the assay with SF-539 CNS was 8.36 µM; with CCRF-CEM leukemia it was 2.52 µM; with HOP-62 NSCLC, 2.47 µM; in the assay on NCI/ADR-RES ovarian it was 1.64 µM. Besides, the TGI in the assay on SK-MEL-2 melanoma stood at 3.43 µM; with MALME-3M melanoma, 3.35 µM; in the assay with A549 NSCLC, 5.3 µM; with MDA-MB-231 breast, 11.7 µM; in the assay on UO-31 renal, 4.08 µM; in the assay with MOLT-4 leukemia, 13.7 µM. For the same compound, the TGI in the assay with SF-539 CNS stood at 21.7 µM; in the assay on CCRF-CEM leukemia, 11.1 µM; in the assay on HOP-62 NSCLC, 8.44 µM; with NCI/ADR-RES ovarian it was 8.52 µM.
